Laboratory results published in ChEMBL document CHEMBL3885881, “DrugMatrix”.

Species on record: Rattus norvegicus
Test: DrugMatrix - Regimen: Daily Repeat
Format: toxicity, organism-based, Sprague-Dawley
Set-up: regimen Daily Repeat, gender Male, age 6-8 weeks
Conditions: in vivo, po, route oral GAVAGE, vehicle .5 % CMC; for ABSOLUTE BASOPHIL / ABSOLUTE EOSINOPHIL / ABSOLUTE LYMPHOCYTE / ABSOLUTE MONOCYTE / ABSOLUTE SEGMENTED NEUTROPHIL / BASOPHIL / EOSINOPHIL / ERYTHROCYTE COUNT / HEMATOCRIT / HEMOGLOBIN / LEUKOCYTE COUNT / LYMPHOCYTE / MEAN CORPUSCULAR HEMOGLOBIN / MEAN CORPUSCULAR HEMOGLOBIN CONCENTRATION / MEAN CORPUSCULAR VOLUME / MONOCYTE / NEUTROPHIL / NUCLEATED RED BLOOD CELLS / PLATELET COUNT: tissue Blood; for ALANINE AMINOTRANSFERASE / ALBUMIN / ALKALINE PHOSPHATASE / ASPARTATE AMINOTRANSFERASE / BLOOD UREA NITROGEN / CARBON DIOXIDE / CHLORIDE / CHOLESTEROL / CREATINE PHOSPHOKINASE / CREATININE / GLUCOSE / LACTATE DEHYDROGENASE / LIPASE / PHOSPHORUS / POTASSIUM / SODIUM / TOTAL BILIRUBIN / TOTAL PROTEIN / URIC ACID: tissue Plasma
[1] = 0 mg/kg, 72 h, dose level Control, time 3 day
[2] = 0 mg/kg, 120 h, dose level Control, time 5 day
[3] = 10 mg/kg, 72 h, dose level Low, time 3 day

SMILES: CC(C)(C#N)c1cc(Cn2cncn2)cc(C(C)(C)C#N)c1 [ANASTROZOLE]
- ABSOLUTE BASOPHIL [1]: 0 CELLS/uL
- ABSOLUTE EOSINOPHIL [1]: 0 CELLS/uL
- ABSOLUTE LYMPHOCYTE [1]: 10913.67 CELLS/uL
- ABSOLUTE MONOCYTE [1]: 85.33 CELLS/uL
- ABSOLUTE SEGMENTED NEUTROPHIL [1]: 1401 CELLS/uL
- BASOPHIL [1]: 0%
- EOSINOPHIL [1]: 0%
- ERYTHROCYTE COUNT [1]: 5.57 x10E6/uL
- HEMATOCRIT [1]: 35.58%
- HEMOGLOBIN [1]: 13.8 G/DL
- LEUKOCYTE COUNT [1]: 12.4 x10E3/uL
- LYMPHOCYTE [1]: 88%
- MEAN CORPUSCULAR HEMOGLOBIN [1]: 24.78 pg
- MEAN CORPUSCULAR HEMOGLOBIN CONCENTRATION [1]: 38.82 G/DL
- MEAN CORPUSCULAR VOLUME [1]: 63.88 fL
- MONOCYTE [1]: 0.67%
- NEUTROPHIL [1]: 11.33%
- NUCLEATED RED BLOOD CELLS [1]: 0 /100WBC
- PLATELET COUNT [1]: 1162.33 x10E3/uL
- ALANINE AMINOTRANSFERASE [1]: 53 u/L
- ALBUMIN [1]: 4.17 G/DL
- ALKALINE PHOSPHATASE [1]: 374.5 u/L
- ASPARTATE AMINOTRANSFERASE [1]: 89.5 u/L
- BLOOD UREA NITROGEN [1]: 16.33 mg/dL
- CARBON DIOXIDE [1]: 29.17 mmol/L
- CHLORIDE [1]: 97.67 MEQ/L
- CHOLESTEROL [1]: 77 mg/dL
- CREATINE PHOSPHOKINASE [1]: 464.83 u/L
- CREATININE [1]: 0.14 mg/dL
- GLUCOSE [1]: 164 mg/dL
- LACTATE DEHYDROGENASE [1]: 155.5 u/L
- LIPASE [1]: 9.17 u/L
- PHOSPHORUS [1]: 12.4 mg/dL
- POTASSIUM [1]: 6.91 MEQ/L
- SODIUM [1]: 141.47 MEQ/L
- TOTAL BILIRUBIN [1]: 0.2 mg/dL
- TOTAL PROTEIN [1]: 5.95 G/DL
- URIC ACID [1]: 1.72 mg/dL
- ABSOLUTE BASOPHIL [2]: 0 CELLS/uL
- ABSOLUTE EOSINOPHIL [2]: 20.5 CELLS/uL
- ABSOLUTE LYMPHOCYTE [2]: 13871.67 CELLS/uL
- ABSOLUTE MONOCYTE [2]: 60.5 CELLS/uL
- ABSOLUTE SEGMENTED NEUTROPHIL [2]: 980.67 CELLS/uL
- BASOPHIL [2]: 0%
- EOSINOPHIL [2]: 0.17%
- ERYTHROCYTE COUNT [2]: 5.65 x10E6/uL
- HEMATOCRIT [2]: 35.63%
- HEMOGLOBIN [2]: 14.08 G/DL
- LEUKOCYTE COUNT [2]: 14.93 x10E3/uL
- LYMPHOCYTE [2]: 92.83%
- MEAN CORPUSCULAR HEMOGLOBIN [2]: 24.97 pg
- MEAN CORPUSCULAR HEMOGLOBIN CONCENTRATION [2]: 39.55 G/DL
- MEAN CORPUSCULAR VOLUME [2]: 63.13 fL
- MONOCYTE [2]: 0.33%
- NEUTROPHIL [2]: 6.67%
- NUCLEATED RED BLOOD CELLS [2]: 0 /100WBC
- PLATELET COUNT [2]: 1248.17 x10E3/uL
- ALANINE AMINOTRANSFERASE [2]: 45.17 u/L
- ALBUMIN [2]: 4.27 G/DL
- ALKALINE PHOSPHATASE [2]: 405.67 u/L
- ASPARTATE AMINOTRANSFERASE [2]: 74.17 u/L
- BLOOD UREA NITROGEN [2]: 15.5 mg/dL
- CARBON DIOXIDE [2]: 30.17 mmol/L
- CHLORIDE [2]: 100.67 MEQ/L
- CHOLESTEROL [2]: 57 mg/dL
- CREATINE PHOSPHOKINASE [2]: 239.5 u/L
- CREATININE [2]: 0.17 mg/dL
- GLUCOSE [2]: 165.67 mg/dL
- LACTATE DEHYDROGENASE [2]: 90.5 u/L
- LIPASE [2]: 8.83 u/L
- PHOSPHORUS [2]: 12.32 mg/dL
- POTASSIUM [2]: 7.03 MEQ/L
- SODIUM [2]: 142.65 MEQ/L
- TOTAL BILIRUBIN [2]: 0.18 mg/dL
- TOTAL PROTEIN [2]: 6.03 G/DL
- URIC ACID [2]: 1.98 mg/dL
- ABSOLUTE BASOPHIL [3]: 0 CELLS/uL
- ABSOLUTE EOSINOPHIL [3]: 62 CELLS/uL
- ABSOLUTE LYMPHOCYTE [3]: 13335.67 CELLS/uL
- ABSOLUTE MONOCYTE [3]: 144.33 CELLS/uL
- ABSOLUTE SEGMENTED NEUTROPHIL [3]: 2091.33 CELLS/uL
- BASOPHIL [3]: 0%
- EOSINOPHIL [3]: 0.33%
- ERYTHROCYTE COUNT [3]: 5.84 x10E6/uL
- HEMATOCRIT [3]: 36.23%
- HEMOGLOBIN [3]: 14.47 G/DL
- LEUKOCYTE COUNT [3]: 15.63 x10E3/uL
- LYMPHOCYTE [3]: 85%
- MEAN CORPUSCULAR HEMOGLOBIN [3]: 24.77 pg
- MEAN CORPUSCULAR HEMOGLOBIN CONCENTRATION [3]: 39.93 G/DL
- MEAN CORPUSCULAR VOLUME [3]: 62 fL
- MONOCYTE [3]: 1%
- NEUTROPHIL [3]: 13.67%
- NUCLEATED RED BLOOD CELLS [3]: 0 /100WBC
- PLATELET COUNT [3]: 1170.33 x10E3/uL
- ALANINE AMINOTRANSFERASE [3]: 55.67 u/L
- ALBUMIN [3]: 4.13 G/DL
- ALKALINE PHOSPHATASE [3]: 405 u/L
- ASPARTATE AMINOTRANSFERASE [3]: 89.67 u/L
- BLOOD UREA NITROGEN [3]: 18.67 mg/dL
- CARBON DIOXIDE [3]: 29 mmol/L
- CHLORIDE [3]: 97 MEQ/L
- CHOLESTEROL [3]: 77 mg/dL
- CREATINE PHOSPHOKINASE [3]: 289.33 u/L
- CREATININE [3]: 0.1 mg/dL
- GLUCOSE [3]: 149.33 mg/dL
- LACTATE DEHYDROGENASE [3]: 219.33 u/L
- LIPASE [3]: 9.33 u/L
- PHOSPHORUS [3]: 13.03 mg/dL
- POTASSIUM [3]: 6.88 MEQ/L
- SODIUM [3]: 142.57 MEQ/L
- TOTAL BILIRUBIN [3]: 0.27 mg/dL
- TOTAL PROTEIN [3]: 5.8 G/DL
